{"source": "paper PMC7501296", "about": "“Rapid and direct control of target protein levels with VHL-recruiting dTAG molecules” (Nature Communications, 2020)", "type_in_all_cases": "cell-based", "key": {"FKBP12^F36V-EWS/FLI": {"system": "FKBP12^F36V-EWS/FLI", "assay": "Immunoblot of EWS502 FKBP12F36V-EWS/FLI; EWS/FLI-/- cells", "method": "To generate 293T^WT FKBP12^F36V-KRAS^G12V and 293T^VHL−/− FKBP12^F36V-KRAS^G12V cells, concentrated lentiviral supernatants[6] were applied to 293T^WT and 293T^VHL−/− cells[33] in the presence of 4 µg mL^−1 polybrene and transduced cell lines were selected with 2 µg mL^−1 puromycin. To generate EWS502 FKBP12^F36V-GFP cells, EWS502 cells were transduced with pLEX_305-dTAG-GFP lentiviral supernatant and selected with 1 µg mL^−1 puromycin. To generate EWS502 FKBP12^F36V-EWS/FLI; EWS/FLI^−/− cells, EWS502 cells were co-transduced with pLEX_305-dTAG-EWS/FLI and lentiCRISPR v2-Blast-sgFLI_Ex9 lentiviral supernatants. Cells were then selected with both 1 µg mL^−1 puromycin (pLEX_305-dTAG-EWS/FLI) and 5 µg mL^−1 blasticidin (lentiCRISPR v2-Blast-sgFLI_Ex9). Knockout of endogenous EWS/FLI and the expression of exogenous FKBP12^F36V-EWS/FLI were confirmed by immunoblot and pooled transduced cell populations were employed for this study. PATU-8902 LACZ-FKBP12^F36V and FKBP12^F36V-KRAS^G12V; KRAS^−/− clones were also employed in this study.\n(§1) PATU-8902 LACZ-FKBP12^F36V and FKBP12^F36V-KRAS^G12V; KRAS^−/− cells and 293T cells were lysed with RIPA buffer supplemented with cOmplete protease inhibitors (Roche), PhosSTOP phosphatase inhibitors (Roche), and 0.1% benzonase (Novagen). Proteins were separated using NuPAGE Bolt^TM Bis–Tris gels (Thermo Fisher Scientific) and transferred to nitrocellulose membranes, which were blocked with Odyssey Blocking Buffer (LI-COR) and incubated with primary antibodies overnight. Membranes were washed three times with TBS-T, incubated with the appropriate fluorescently labeled infrared secondary antibodies, washed again three times with TBS-T, and assessed using an Odyssey CLx Imager (LI-COR)[6],[15]. EWS502 cells were lysed with Cell Lysis Buffer (Cell Signaling Technology) supplemented with cOmplete protease inhibitors (Roche). Proteins were separated using SDS-PAGE gels and transferred to PVDF membranes, which were blocked with 5% milk in TBS-T and incubated with primary antibodies overnight. Membranes were washed five times with TBS-T, incubated with the appropriate horseradish peroxidase-conjugated secondary antibodies, washed again five times with TBS-T, and imaged. […]"}, "CDK9": {"target": "T1, CDK9 (Homo sapiens, UniProt P50750)", "T1 construct": "endogenous in cells; host or cells: PATU-8902 LACZ-FKBP12^F36V clone", "assay": "Immunoblot, co-treatment with THAL-SNS-032 and/or dTAGV-1 in PATU-8902 LACZ-FKBP12F36V clone", "method": "as §1, with “imaged. The following primary antibodies were employed in this study: HA (Cell Signaling Technology #3724 and #2367, dilution at 1:1000), phospho-ERK1/2 T202/Y204 (Cell Signaling Technology #4370, dilution at 1:1000), ERK1/2 (Cell Signaling Technology #4696, dilution at 1:1000), phospho-AKT S473 (Cell Signaling Technology #4060, dilution at 1:1000), AKT (Cell Signaling Technology #2920, dilution at 1:1000), FKBP12 (Abcam #ab24373, dilution at 1:1000), GFP (Cell Signaling Technology #2555, dilution at 1:1000), FLI (Abcam #ab15289, dilution at 1:2000), NKX2-2 (Abcam #ab187375, dilution at 1:1000), GAPDH (Cell Signaling Technology #2118, dilution at 1:3000), Vinculin (Cell Signaling Technology #13901, dilution at 1:3000), β-Actin (Cell Signaling Technology #58169, dilution at 1:3000), and α-Tubulin (Cell Signaling Technology #3873, dilution at 1:5000).” for “imaged.”"}, "LACZ-FKBP12^F36V": {"system": "LACZ-FKBP12^F36V", "assay": "Immunoblot of PATU-8902 LACZ-FKBP12F36V clone", "details": "PATU-8902 LACZ-FKBP12F36V cells, 4 h", "method": "as §1"}}}
{"compound": "CC[C@H](C(=O)N1CCCC[C@H]1C(=O)O[C@H](CCc1ccc(OC)c(OC)c1)c1ccccc1OCC(=O)NCCCCCCC(=O)N[C@H](C(=O)N1C[C@H](O)C[C@H]1C(=O)N[C@@H](C)c1ccc(-c2scnc2C)cc1)C(C)(C)C)c1cc(OC)c(OC)c(OC)c1", "note": "[dTAG^V-1]", "values": [{"measurement": "FKBP12F36V-EWS/FLI degradation, immunoblot", "setting": "FKBP12^F36V-EWS/FLI; EWS502 FKBP12F36V-EWS/FLI, EWS/FLI-/- cells", "result": "only susceptible to degradation upon treatment with dTAG^V-1"}, {"measurement": "Time of treatment at which FKBP12F36V-EWS/FLI degradation was evident", "setting": "FKBP12^F36V-EWS/FLI; EWS502 cells", "result": "≤ 1", "unit": "h"}, {"measurement": "Degradation of both LACZ-FKBP12F36V and CDK9 on co-treatment", "setting": "CDK9; co-treatment dTAGV-1 + THAL-SNS-032, 24 h", "result": "pronounced degradation"}, {"measurement": "CDK9 protein levels", "setting": "CDK9; dTAGV-1 alone, 24 h", "result": "did not alter"}, {"measurement": "Degradation of FKBP12F36V-fusion (LACZ-FKBP12F36V), immunoblot", "setting": "LACZ-FKBP12^F36V", "result": "effective degradation"}]}
